# Test results: patent US8742110B2, “Spiroxazolidinone compounds” (Merck Sharp & Dohme Corp., priority 2010, dated 2014)
# pIC50: −log10 of the molar value. Where a name gives a salt, the structure may show the parent alone.
# Molecular target: SSTR5 (Homo sapiens (Human), UniProt P35346)
# Assay: SSTR5 binding assay
# Conditions: CHO-K1 membranes expressing cloned human SSTR5
# How it was run: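 Competition binding on membranes from CHO-K1 cells stably expressing cloned human receptor, using radiolabeled somatostatin in 50 mM Tris-HCl pH 7.8 with EGTA, MgCl2 and protease inhibitors. Unlabeled compounds tested from 0.01 nM to 10,000 nM.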
# SSTR5, sequence (P35346 whole entry): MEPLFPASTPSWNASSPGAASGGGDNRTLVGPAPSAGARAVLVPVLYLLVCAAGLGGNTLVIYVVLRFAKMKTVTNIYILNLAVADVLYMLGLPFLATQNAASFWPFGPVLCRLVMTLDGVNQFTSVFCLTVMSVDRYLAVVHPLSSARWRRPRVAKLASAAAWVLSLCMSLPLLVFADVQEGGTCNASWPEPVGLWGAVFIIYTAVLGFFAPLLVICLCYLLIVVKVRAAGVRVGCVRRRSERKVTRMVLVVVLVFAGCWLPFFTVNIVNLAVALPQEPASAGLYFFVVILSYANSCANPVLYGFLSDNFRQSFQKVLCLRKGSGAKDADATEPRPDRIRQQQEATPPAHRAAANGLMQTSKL
row,pIC50,Structure (SMILES)
1,6.66,"O=C(O)c1ccc(N2CC3(CCN(Cc4cnc(-c5ccccc5)nc4-c4ccc(F)cc4)CC3)OC2=O)cc1 [Example 4-15, 4-(8-{[4-(4-Fluorophenyl)-2-phenylpyrimidin-5-yl]methyl}-2-oxo-1-oxa-3,8-diazaspiro[4.5]dec-3-yl)benzoic acid, TFA salt]"
2,8.82,"CCOc1ccc(-c2nccs2)c(CN2CCC3(CC2)CN(c2ccc(C(=O)O)cc2)C(=O)O3)c1 [Example 4-27, 4-{8-[5-Ethoxy-2-(1,3-thiazol-2-yl)benzyl]-2-oxo-1-oxa-3,8-diazaspiro[4.5]dec-3-yl}benzoic acid, TFA salt]"
3,9.20,"CCOc1cc(CN2CCC3(CC2)CN(c2ccc(C(=O)O)cc2)C(=O)O3)c(-c2ccc(C(F)(F)F)nc2)cc1C [Example 4-20, 4-(8-{5-Ethoxy-4-methyl-2-[6-(trifluoromethyl)pyridin-3-yl]benzyl}-2-oxo-1-oxa-3,8-diazaspiro[4.5]dec-3-yl)benzoic acid, TFA salt]"
4,6.83,"CC(C)n1nc(CN2CCC3(CC2)CN(c2ccc(C(=O)O)cc2)C(=O)O3)c2cc(F)ccc21 [Example 6-5, 4-(8-{[5-Fluoro-1-(propan-2-yl)-1H-indazol-3-yl]methyl}-2-oxo-1-oxa-3,8-diazaspiro[4.5]dec-3-yl)benzoic acid, TFA salt]"
5,8.44,"CC1(C)CCOc2c(F)cc(CN3CCC4(CC3)CN(c3ccc(C(=O)O)cc3)C(=O)O4)cc21 [Example 5-14, 4-{8-[(8-Fluoro-4,4-dimethyl-3,4-dihydro-2H-chromen-6-yl)methyl]-2-oxo-1-oxa-3,8-diazaspiro[4.5]dec-3-yl}benzoic acid, TFA salt]"
6,9.36,"O=C(O)c1ccc(N2CC3(CCN(Cc4cc(C(F)(F)F)ccc4-c4ccc(F)c(F)c4F)CC3)OC2=O)cc1 [Example 4-9, 4-(2-Oxo-8-{[2′,3′,4′-trifluoro-4-(trifluoromethyl)biphenyl-2-yl]methyl}-1-oxa-3,8-diazaspiro[4.5]dec-3-yl)benzoic acid, TFA salt]"
7,9.57,"CC(C)Oc1ccc(-c2cc(F)c(F)cc2F)c(CN2CCC3(CC2)CN(c2ccc(C(=O)O)cc2)C(=O)O3)c1 [Example 4-16, 4-(2-Oxo-8-{[2′,4′,5′-trifluoro-4-(propan-2-yloxy)biphenyl-2-yl]methyl}-1-oxa-3,8-diazaspiro[4.5]dec-3-yl)benzoic acid, TFA salt]"
8,7.87,"O=C(O)c1ccc(N2CC3(CCN(Cc4c(-c5ccccc5)nc5ccccn45)CC3)OC2=O)cc1 [Example 6-37, 4-{2-Oxo-8-[(2-phenylimidazo[1,2-a]pyridin-3-yl)methyl]-1-oxa-3,8-diazaspiro[4.5]dec-3-yl}benzoic acid, TFA salt]"
9,5.92,"CC(C)n1nc(CN2CCC3(CC2)CN(c2ccc(C(=O)O)cc2)C(=O)O3)c2ccc(C(N)=O)cc21 [Example 6-8, 4-(8-{[6-Carbamoyl-1-(propan-2-yl)-1H-indazol-3-yl]methyl}-2-oxo-1-oxa-3,8-diazaspiro[4.5]dec-3-yl)benzoic acid, TFA salt]"
10,6.68,"O=C(O)c1ccc(N2CC3(CCN(Cc4ccc5c(c4)OCO5)CC3)OC2=O)cc1 [Example 5-17, 4-{8-[(1,3-Benzodioxol-5-yl)methyl]-2-oxo-1-oxa-3,8-diazaspiro[4.5]dec-3-yl}benzoic acid, TFA salt]"
11,7.53,"CC1(C)CCc2cc(CN3CCC4(CC3)CN(c3ccc(C(=O)O)cc3)C(=O)O4)ccc2O1 [Example 5-12, 4-{2-Oxo-8-[(2,2-dimethyl-3,4-dihydro-2H-chromen-6-yl)methyl]-1-oxa-3,8-diazaspiro[4.5]dec-3-yl}benzoic acid, TFA salt]"
12,8.95,"Cc1cc(-c2cc(F)c(F)cc2F)c(CN2CCC3(CC2)CN(c2ccc(C(=O)O)cc2)C(=O)O3)cc1Cl [Example 4-24, 4-{8-[(4-Chloro-2′,4′,5′-trifluoro-5-methylbiphenyl-2-yl)methyl]-2-oxo-1-oxa-3,8-diazaspiro[4.5]dec-3-yl}benzoic acid, TFA salt]"
13,5.93,"O=C(O)c1ccc(N2CC3(CCN(Cc4n[nH]c5ccc(F)cc45)CC3)OC2=O)cc1 [Example 6-1, 4-{8-[(5-Fluoro-1H-indazol-3-yl)methyl]-2-oxo-1-oxa-3,8-diazaspiro[4.5]dec-3-yl}benzoic acid, TFA salt]"
14,9.39,"CCOc1cc(CN2CCC3(CC2)CN(c2ccc(C(=O)O)cc2)C(=O)O3)c(-c2ccc(F)nc2)cc1C [Example 4-14, 4-{8-[5-Ethoxy-2-(6-fluoropyridin-3-yl)-4-methylbenzyl]-2-oxo-1-oxa-3,8-diazaspiro[4.5]dec-3-yl}benzoic acid, TFA salt]"
15,7.17,"COc1ccc2c(CN3CCC4(CC3)CN(c3ccc(C(=O)O)cc3)C(=O)O4)nn(C(C)C)c2c1 [Example 6-6, 4-(8-{[6-Methoxy-1-(propan-2-yl)-1H-indazol-3-yl]methyl}-2-oxo-1-oxa-3,8-diazaspiro[4.5]dec-3-yl)benzoic acid, TFA salt]"
16,8.74,"Cc1cc(CN2CCC3(CC2)CN(c2ccc(C(=O)O)cc2)C(=O)O3)cc2c1OCCC2C (stereo not drawn) [Example 5-16, 4-{8-[(4,8-Dimethyl-3,4-dihydro-2H-chromen-6-yl)methyl]-2-oxo-1-oxa-3,8-diazaspiro[4.5]dec-3-yl}benzoic acid, TFA salt]"
17,6.39,"COc1ccc2c(CN3CCC4(CC3)CN(c3ccc(C(=O)O)cc3)C(=O)O4)nn(CC(C)(C)C)c2c1 [Example 6-11, 4-(8-{[1-(2,2-Dimethylpropyl)-6-methoxy-1H-indazol-3-yl]methyl}-2-oxo-1-oxa-3,8-diazaspiro[4.5]dec-3-yl)benzoic acid, TFA salt]"
18,6.38,"O=C(O)c1ccc(N2CC3(CCN(Cc4nc(C5CC5)oc4-c4ccc(F)c(Cl)c4)CC3)OC2=O)cc1 [Example 6-31, 4-(8-{[5-(3-Chloro-4-fluorophenyl)-2-cyclopropyl-1,3-oxazol-4-yl]methyl}-2-oxo-1-oxa-3,8-diazaspiro[4.5]dec-3-yl)benzoic acid, TFA salt]"
19,6.82,"Cc1nc(-c2ccccc2)c(CN2CCC3(CC2)CN(c2ccc(C(=O)O)cc2)C(=O)O3)s1 [Example 6-33, 4-{8-[(2-Methyl-4-phenyl-1,3-thiazol-5-yl)methyl]-2-oxo-1-oxa-3,8-diazaspiro[4.5]dec-3-yl}benzoic acid, TFA salt]"

# Further lines, the compound ahead of its results:
row,Structure (SMILES),pIC50
1,"O=C(O)c1ccc(N2CC3(CCN(Cc4c(-c5cc(F)c(F)cc5F)nn(-c5ccccc5)c4Cl)CC3)OC2=O)cc1 [Example 1-39, 4-(8-{[5-Chloro-1-phenyl-3-(2,4,5-trifluorophenyl)-1H-pyrazol-4-yl]methyl}-2-oxo-1-oxa-3,8-diazaspiro[4.5]dec-3-yl)benzoic acid, TFA salt]",7.35
2,"CCCCn1nc(Cc2cc(F)c(F)cc2F)c(CN2CCC3(CC2)CN(c2ccc(C(=O)O)cc2)C(=O)O3)c1Cl [Example 1-44, 4-(8-{[5-Chloro-1-butyl-3-(2,4,5-trifluorobenzyl)-1H-pyrazol-4-yl]methyl}-2-oxo-1-oxa-3,8-diazaspiro[4.5]dec-3-yl)benzoic acid, TFA salt]",7.84
3,"O=C(O)c1ccc(N2CC3(CCN(Cc4cn(C5CCCCC5)nc4-c4cc(F)c(F)cc4F)CC3)OC2=O)cc1 [Example 1-33, 4-(8-{[1-Cyclohexyl-3-(2,4,5-trifluorophenyl)-1H-pyrazol-4-yl]methyl}-2-oxo-1-oxa-3,8-diazaspiro[4.5]dec-3-yl)benzoic acid, TFA salt]",8.89
4,"CC(C)(C)n1cc(CN2CCC3(CC2)CN(c2ccc(C(=O)O)cc2)C(=O)O3)c(-c2c(F)cc(F)cc2F)n1 [Example 1-8, 4-(8-{[1-tert-Butyl-3-(2,4,6-trifluorophenyl)-1H-pyrazol-4-yl]methyl}-2-oxo-1-oxa-3,8-diazaspiro[4.5]dec-3-yl)benzoic acid, TFA salt]",8.66
5,"CCOc1cc(CN2CCC3(CC2)CN(c2ccc(C(=O)O)c(OC)c2)C(=O)O3)cc(OCC)c1-c1ccc(F)cc1 [Example 3-20, 4-{8-[(2,6-Diethoxy-4′-fluorobiphenyl-4-yl)methyl]-2-oxo-1-oxa-3,8-diazaspiro[4.5]dec-3-yl}-2-methoxybenzoic acid, TFA salt]",9.89
6,"O=C(O)c1ccc(N2CC3(CCN(Cc4cn(C5CCCCC5)nc4-c4ccc(OC(F)(F)F)cc4)CC3)OC2=O)cc1 [Example 1-23, 4-[8-({1-Cyclohexyl-3-[4-(trifluoromethoxy)phenyl]-1H-pyrazol-4-yl}methyl)-2-oxo-1-oxa-3,8-diazaspiro[4.5]dec-3-yl]benzoic acid, TFA salt]",8.65
7,"CCOc1cc(CN2CCC3(CC2)CN(c2ccc(C(=O)O)cc2C)C(=O)O3)cc(OCC)c1-c1ccc(F)cc1 [Example 3-16, 4-{8-[(2,6-Diethoxy-4′-fluorobiphenyl-4-yl)methyl]-2-oxo-1-oxa-3,8-diazaspiro[4.5]dec-3-yl}-3-methylbenzoic acid, TFA salt]",8.93
8,"CCOc1cc(CN2CCC3(CC2)CN(c2ccc(C(=O)O)cn2)C(=O)O3)cc(OCC)c1-c1ccc(F)cc1 [Example 3-11, 6-{8-[(2,6-Diethoxy-4′-fluorobiphenyl-4-yl)methyl]-2-oxo-1-oxa-3,8-diazaspiro[4.5]dec-3-yl}pyridine-3-carboxylic acid, TFA salt]",9.03
9,"CCOc1cc(CN2CCC3(CC2)CN(c2ccc(-c4nn[nH]n4)cc2)C(=O)O3)cc(OCC)c1-c1ccc(F)cc1 [Example 3-12, 8-[(2,6-Diethoxy-4′-fluorobiphenyl-4-yl)methyl]-3-[4-(2H-tetrazol-5-yl)phenyl]-1-oxa-3,8-diazaspiro[4.5]decan-2-one, TFA salt]",9.49
10,"CCOc1cc(CN2CCC3(CC2)CN(c2ccc(C(=O)O)cc2F)C(=O)O3)cc(OCC)c1-c1ccc(F)cc1 [Example 3-21, 4-{8-[(2,6-Diethoxy-4′-fluorobiphenyl-4-yl)methyl]-2-oxo-1-oxa-3,8-diazaspiro[4.5]dec-3-yl}-3-fluorobenzoic acid, TFA salt]",9.36
11,"CCCCn1cc(CN2CCC3(CC2)CN(c2ccc(C(=O)O)cc2)C(=O)O3)c(Cc2cc(F)c(F)cc2F)n1 [Example 1-40, 4-(8-{[1-Butyl-3-(2,4,5-trifluorobenzyl)-1H-pyrazol-4-yl]methyl}-2-oxo-1-oxa-3,8-diazaspiro[4.5]dec-3-yl)benzoic acid, TFA salt]",8.08
